Assay results as given in patent US20080090734A1, “DRUG SCREENING AND TARGET IDENTIFICATION USING SPR IMAGING OF TARGET PROTEIN ARRAYS” (The Trustees of California State University, priority 2006, published 2008).

Assays:
Assay in all cases: Antibiotic susceptibility profile
Format in all cases: cell-based, Acinetobacter baumannii
Parameters in all cases: key: Resistance; Intermediate; Susceptible
[1] = system: A. baumannii clinical isolate LAC 01
Source text: (§1) We obtained over thirty clinical isolates of A. baumannii from nosocomial infections in New York City and Los Angeles. […] Only antibiotics with breakpoints for A. baumannii were used. […] Isolates LA 01 to 20 were acquired from Los Angels County while NY-A to NY-H were obtained from New York City.
(§2) Antibiotic susceptibility profiles of clinical isolates of A. baumannii and reference strains. R, I, and S denote Resistance, Intermediate and Susceptible, respectively. Genetic Profiling of Clinical Isolates of A. baumannii

[2] = system: A. baumannii clinical isolate LAC 02
Source text: as §1, §2

[3] = system: A. baumannii clinical isolate LAC 03
Source text: as §1, §2

[4] = system: A. baumannii clinical isolate LAC 04
Source text: as §1, §2

[5] = system: A. baumannii clinical isolate LAC 05
Source text: as §1, §2

[6] = system: A. baumannii clinical isolate LAC 06
Source text: as §1, §2

[7] = system: A. baumannii clinical isolate LAC 07
Source text: as §1, §2

[8] = system: A. baumannii clinical isolate LAC 08
Source text: as §1, §2

[9] = system: A. baumannii clinical isolate LAC 09
Source text: as §1, §2

[10] = system: A. baumannii clinical isolate LAC 10
Source text: as §1, §2

[11] = system: A. baumannii clinical isolate LAC 11
Source text: as §1, §2

[12] = system: A. baumannii clinical isolate LAC 12
Source text: as §1, §2

[13] = system: A. baumannii clinical isolate LAC 13
Source text: as §1, §2

[14] = system: A. baumannii clinical isolate LAC 14
Source text: as §1, §2

[15] = system: A. baumannii clinical isolate LAC 15
Source text: as §1, §2

[16] = system: A. baumannii clinical isolate LAC 16
Source text: as §1, §2

[17] = system: A. baumannii clinical isolate LAC 17
Source text: as §1, §2

[18] = system: A. baumannii clinical isolate LAC 18
Source text: as §1, §2

[19] = system: A. baumannii clinical isolate LAC 19
Source text: as §1, §2

[20] = system: A. baumannii clinical isolate LAC 20
Source text: as §1, §2

[21] = system: A. baumannii clinical isolate NY A
Source text: as §1, §2

[22] = system: A. baumannii clinical isolate NY B
Source text: as §1, §2

[23] = system: A. baumannii clinical isolate NY C
Source text: as §1, §2

[24] = system: A. baumannii clinical isolate NY D
Source text: as §1, §2

[25] = system: A. baumannii clinical isolate NY E
Source text: as §1, §2

[26] = system: A. baumannii clinical isolate NY F
Source text: as §1, §2

[27] = system: A. baumannii clinical isolate NY G
Source text: as §1, §2

[28] = system: A. baumannii clinical isolate NY H
Source text: as §1, §2

[29] = system: A. baumannii reference strain 15839; conditions: strain 15839 (ATCC)
Source text: as §1, §2

[30] = system: A. baumannii reference strain 17978; conditions: strain 17978 (ATCC)
Source text: as §1, §2

[31] = system: A. baumannii reference strain 19606; conditions: strain 19606 (ATCC)
Source text: as §1, §2

[32] = system: A. baumannii reference strain AYE
Source text: as §1, §2

[33] = system: A. baumannii reference strain SDF
Source text: as §1, §2

Structure (SMILES) | Antibiotic susceptibility [1] | Antibiotic susceptibility [2] | Antibiotic susceptibility [3] | Antibiotic susceptibility [4] | Antibiotic susceptibility [5] | Antibiotic susceptibility [6] | Antibiotic susceptibility [7] | Antibiotic susceptibility [8] | Antibiotic susceptibility [9] | Antibiotic susceptibility [10] | Antibiotic susceptibility [11] | Antibiotic susceptibility [12] | Antibiotic susceptibility [13] | Antibiotic susceptibility [14] | Antibiotic susceptibility [15] | Antibiotic susceptibility [16] | Antibiotic susceptibility [17] | Antibiotic susceptibility [18] | Antibiotic susceptibility [19] | Antibiotic susceptibility [20] | other results
C[C@H]1c2cccc(O)c2C(=O)C2=C(O)[C@]3(O)C(=O)C(C(N)=O)=C(O)[C@@H](N(C)C)[C@@H]3[C@@H](O)[C@@H]21 [DOX, Doxycycline] | S | S | S | S | S | S | S | S | S | S | R | R | R | R | S | S | S | S | S | S | Antibiotic susceptibility [21]: S; Antibiotic susceptibility [22]: R; Antibiotic susceptibility [23]: S; Antibiotic susceptibility [24]: S; Antibiotic susceptibility [25]: R; Antibiotic susceptibility [26]: S; Antibiotic susceptibility [27]: R; Antibiotic susceptibility [28]: S; Antibiotic susceptibility [29]: R; Antibiotic susceptibility [30]: S; Antibiotic susceptibility [31]: S; Antibiotic susceptibility [32]: S; Antibiotic susceptibility [33]: S
CO/N=C(\C(=O)N[C@@H]1C(=O)N2C(C(=O)[O-])=C(C[N+]3(C)CCCC3)CS[C@H]12)c1csc(N)n1 [FEP, Cefepime] | R | R | R | I | I | S | R | I | R | R | R | R | R | R | R | R | R | R | R | R | Antibiotic susceptibility [21]: I; Antibiotic susceptibility [22]: R; Antibiotic susceptibility [23]: R; Antibiotic susceptibility [24]: R; Antibiotic susceptibility [25]: R; Antibiotic susceptibility [26]: R; Antibiotic susceptibility [27]: R; Antibiotic susceptibility [28]: R; Antibiotic susceptibility [29]: I; Antibiotic susceptibility [30]: S; Antibiotic susceptibility [31]: I; Antibiotic susceptibility [32]: R; Antibiotic susceptibility [33]: I
COc1c(N2CCNC(C)C2)c(F)cc2c(=O)c(C(=O)O)cn(C3CC3)c12 (stereo not drawn) [GAT, Gatifloxacin] | R | R | R | S | R | S | R | R | R | R | R | R | R | R | R | R | R | R | I | R | Antibiotic susceptibility [21]: R; Antibiotic susceptibility [22]: R; Antibiotic susceptibility [23]: R; Antibiotic susceptibility [24]: R; Antibiotic susceptibility [25]: R; Antibiotic susceptibility [26]: R; Antibiotic susceptibility [27]: R; Antibiotic susceptibility [28]: R; Antibiotic susceptibility [29]: R; Antibiotic susceptibility [30]: S; Antibiotic susceptibility [31]: S; Antibiotic susceptibility [32]: I; Antibiotic susceptibility [33]: S
